According to the supplement of paper PMC10307832:

Tests used:
Assay in all cases: relative viability (nuclei count vs DMSO), 5 days (fraction); higher = more cells survive
SGI-1776 + Phenformin = compound: CN1CCC(CNc2ccc3ncc(-c4cccc(OC(F)(F)F)c4)n3n2)CC1 [SGI-1776] + N=C(N)NC(=N)NCCc1ccccc1 [Phenformin] (partner 250 µM)
How it was run: (§1)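 The day after seeding in 1536-well plates, lung cancer cell lines were treated by pin tool with a single drug, or with a fixed anchor-drug dose together with five library-drug doses (not always all listed) in √10 steps. After 5 days, a combined fix-and-stain solution (final 0.05% Triton X-100, 1% formaldehyde, 1 ug/ml Hoechst) was added. Nuclei counted on 4× images gave relative viability as treated counts over vehicle counts, reported as the median of duplicate plates.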

SGI-1776 + Pemetrexed = compound: CN1CCC(CNc2ccc3ncc(-c4cccc(OC(F)(F)F)c4)n3n2)CC1 [SGI-1776] + Nc1nc2[nH]cc(CCc3ccc(C(=O)N[C@@H](CCC(=O)O)C(=O)O)cc3)c2c(=O)[nH]1 [Pemetrexed] (partner 0.2 µM)
How it was run: as §1

SGI-1776 + Olaparib = compound: CN1CCC(CNc2ccc3ncc(-c4cccc(OC(F)(F)F)c4)n3n2)CC1 [SGI-1776] + O=C(c1cc(Cc2n[nH]c(=O)c3ccccc23)ccc1F)N1CCN(C(=O)C2CC2)CC1 [Olaparib] (partner 8 µM)
How it was run: as §1

[1] = compound: C1COCCN1C2=NC(=NC3=C2OC4=C3C=CC=N4)C5=CC(=CC=C5)NC(=O)C6=CN=C(C=C6)N + O=C(c1cc(Cc2n[nH]c(=O)c3ccccc23)ccc1F)N1CCN(C(=O)C2CC2)CC1 [Olaparib] (partner 8 µM)
How it was run: as §1

Cell Line	relative viability (SGI-1776 + Phenformin; first compound 0.08 µM)	relative viability (SGI-1776 + Phenformin; first compound 0.8 µM)	relative viability (SGI-1776 + Phenformin; first compound 2.53 µM)	relative viability (SGI-1776 + Phenformin; first compound 8 µM)	relative viability (SGI-1776 + Pemetrexed; first compound 0.08 µM)	relative viability (SGI-1776 + Pemetrexed; first compound 0.8 µM)	relative viability (SGI-1776 + Pemetrexed; first compound 2.53 µM)	relative viability (SGI-1776 + Pemetrexed; first compound 8 µM)	relative viability (SGI-1776 + Olaparib; first compound 0.08 µM)	relative viability (SGI-1776 + Olaparib; first compound 0.8 µM)	relative viability (SGI-1776 + Olaparib; first compound 2.53 µM)	relative viability (SGI-1776 + Olaparib; first compound 8 µM)	relative viability ([1]; first compound 0.02 µM)	relative viability ([1]; first compound 0.06325 µM)	relative viability ([1]; first compound 0.2 µM)	relative viability ([1]; first compound 0.6325 µM)	relative viability ([1]; first compound 2 µM)
NCI-H358	0.325	0.34	0.313	0.214	0.177	0.218	0.168	0.161	0.648	0.605	0.569	0.403	0.7	0.662	0.552	0.579	0.372
BEN	0.282	0.269	0.303	0.306	0.806	0.811	0.712	0.615	1.01	1.15	1.07	0.966	0.935	1.17	1.23	1.09	0.819
ChaGo-K-1	0.491	0.526	0.458	0.408	0.269	0.267	0.287	0.242	0.393	0.487	0.405	0.45	0.435	0.402	0.401	0.409	0.331
SK-MES-1	0.643	0.593	0.53	0.493	1.11	1	0.999	0.647	0.772	0.744	0.664	0.347	0.71	0.816	0.611	0.51	0.427
NCI-H1792	0.335	0.257	0.135	0.257	0.965	0.754	0.745	0.649	0.623	0.533	0.429	0.453	0.826	0.598	0.303	0.235	0.219
NCI-H2085	0.852	0.8	0.795	0.58	0.936	1.06	0.971	0.788	0.758	0.797	0.926	0.794	0.735	0.793	0.747	0.68	0.547
LCLC-103H	0.371	0.325	0.323	0.281	0.488	0.446	0.452	0.466	0.781	0.776	0.716	0.7	0.732	0.799	0.815	0.745	0.502
201T	0.442	0.461	0.415	0.471	0.325	0.339	0.348	0.301	0.856	0.893	0.854	0.9	0.854	0.879	0.837	0.923	0.458
